ChEMBL document CHEMBL1201862, “PubChem BioAssay data set” (2004)
Calls of active or inactive are those of the source.

Key:
BJ = assay: BJ-TERT fibroblast viability loss – cell-based, RAS-independent, luminescence, dose response (AID 1933); assay type: functional; details: Homo sapiens
[1] = alpha-synuclein stem-loop luciferase translation blockers – H4 neuroglioma cells, luminescence, confirmation (AID 1988); assay type: functional, cell-based
[2] = viability of HCT116 lacking mutant beta-catenin – cell-based, human colon tumor, dose response (AID 1045); assay type: functional;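 further: HCT116 colon tumor cells with beta catenin knocked out; cells exposed to compound for 60 hours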
[3] = molecular target: Serine/threonine-protein phosphatase PP1-alpha catalytic subunit (Homo sapiens, UniProt P62136); assay: inhibition of protein phosphatase 1 activity – biochemical, fluorescence, dose response (AID 2394)
Serine/threonine-protein phosphatase PP1-alpha catalytic subunit, sequence (P62136 whole entry): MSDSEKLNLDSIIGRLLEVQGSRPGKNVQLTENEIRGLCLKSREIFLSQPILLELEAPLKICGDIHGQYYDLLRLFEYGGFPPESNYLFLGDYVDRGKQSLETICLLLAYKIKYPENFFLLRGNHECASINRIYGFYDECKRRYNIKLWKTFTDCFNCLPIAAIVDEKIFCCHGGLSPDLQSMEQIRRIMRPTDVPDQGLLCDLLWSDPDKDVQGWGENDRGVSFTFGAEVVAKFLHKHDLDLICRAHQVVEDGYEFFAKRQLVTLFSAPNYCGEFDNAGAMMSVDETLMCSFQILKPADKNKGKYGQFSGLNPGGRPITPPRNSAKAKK

[4] = molecular target: T1, Tyrosine-protein phosphatase non-receptor type 22 (Homo sapiens, UniProt Q9Y2R2); assay: lymphoid phosphatase LYP inhibitors – biochemical, selectivity assay for STEP inhibitor project, dose response (AID 624241); assay type: functional
T1 sequence (Q9Y2R2 whole entry): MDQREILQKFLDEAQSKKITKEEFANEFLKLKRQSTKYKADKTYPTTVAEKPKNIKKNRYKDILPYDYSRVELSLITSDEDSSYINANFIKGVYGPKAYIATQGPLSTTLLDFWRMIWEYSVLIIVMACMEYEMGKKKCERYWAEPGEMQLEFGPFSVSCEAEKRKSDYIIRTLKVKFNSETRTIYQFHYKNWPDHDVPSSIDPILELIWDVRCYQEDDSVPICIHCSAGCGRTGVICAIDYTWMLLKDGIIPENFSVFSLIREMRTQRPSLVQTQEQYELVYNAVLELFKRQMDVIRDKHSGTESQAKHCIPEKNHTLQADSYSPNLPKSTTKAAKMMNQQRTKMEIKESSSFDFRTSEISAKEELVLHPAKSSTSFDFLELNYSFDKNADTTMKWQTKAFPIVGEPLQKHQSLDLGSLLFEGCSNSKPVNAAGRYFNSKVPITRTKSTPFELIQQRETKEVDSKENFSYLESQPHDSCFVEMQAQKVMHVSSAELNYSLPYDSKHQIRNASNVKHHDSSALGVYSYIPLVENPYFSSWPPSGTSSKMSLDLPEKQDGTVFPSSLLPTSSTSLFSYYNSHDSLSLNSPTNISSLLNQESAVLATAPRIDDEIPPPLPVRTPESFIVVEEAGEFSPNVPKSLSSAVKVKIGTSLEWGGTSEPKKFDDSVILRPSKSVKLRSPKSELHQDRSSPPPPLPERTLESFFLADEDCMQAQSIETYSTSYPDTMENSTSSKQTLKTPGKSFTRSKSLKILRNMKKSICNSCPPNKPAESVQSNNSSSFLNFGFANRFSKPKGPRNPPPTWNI

[5] = molecular target: Dual specificity protein phosphatase 3 (Homo sapiens, UniProt P51452); assay: VHR phosphatase inhibition, dose response, selectivity assay for STEP inhibitor project, biochemical (AID 602374); assay type: functional; details: read-out: IC50_Mean
Dual specificity protein phosphatase 3, sequence (P51452 whole entry): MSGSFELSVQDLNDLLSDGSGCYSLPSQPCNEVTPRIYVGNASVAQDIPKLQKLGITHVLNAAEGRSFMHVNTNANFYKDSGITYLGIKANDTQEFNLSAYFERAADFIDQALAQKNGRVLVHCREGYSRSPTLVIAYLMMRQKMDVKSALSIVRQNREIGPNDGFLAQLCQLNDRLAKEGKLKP

[6] = molecular target: T2, Lysine-specific demethylase 4A (Homo sapiens, UniProt O75164); assay: inhibition of JMJD2A H3K9me3 demethylation – biochemical, DELFIA europium, cherry-picked samples, selectivity assay for GASC-1 inhibitor project, dose response (AID 488840)
T2 sequence (O75164 whole entry): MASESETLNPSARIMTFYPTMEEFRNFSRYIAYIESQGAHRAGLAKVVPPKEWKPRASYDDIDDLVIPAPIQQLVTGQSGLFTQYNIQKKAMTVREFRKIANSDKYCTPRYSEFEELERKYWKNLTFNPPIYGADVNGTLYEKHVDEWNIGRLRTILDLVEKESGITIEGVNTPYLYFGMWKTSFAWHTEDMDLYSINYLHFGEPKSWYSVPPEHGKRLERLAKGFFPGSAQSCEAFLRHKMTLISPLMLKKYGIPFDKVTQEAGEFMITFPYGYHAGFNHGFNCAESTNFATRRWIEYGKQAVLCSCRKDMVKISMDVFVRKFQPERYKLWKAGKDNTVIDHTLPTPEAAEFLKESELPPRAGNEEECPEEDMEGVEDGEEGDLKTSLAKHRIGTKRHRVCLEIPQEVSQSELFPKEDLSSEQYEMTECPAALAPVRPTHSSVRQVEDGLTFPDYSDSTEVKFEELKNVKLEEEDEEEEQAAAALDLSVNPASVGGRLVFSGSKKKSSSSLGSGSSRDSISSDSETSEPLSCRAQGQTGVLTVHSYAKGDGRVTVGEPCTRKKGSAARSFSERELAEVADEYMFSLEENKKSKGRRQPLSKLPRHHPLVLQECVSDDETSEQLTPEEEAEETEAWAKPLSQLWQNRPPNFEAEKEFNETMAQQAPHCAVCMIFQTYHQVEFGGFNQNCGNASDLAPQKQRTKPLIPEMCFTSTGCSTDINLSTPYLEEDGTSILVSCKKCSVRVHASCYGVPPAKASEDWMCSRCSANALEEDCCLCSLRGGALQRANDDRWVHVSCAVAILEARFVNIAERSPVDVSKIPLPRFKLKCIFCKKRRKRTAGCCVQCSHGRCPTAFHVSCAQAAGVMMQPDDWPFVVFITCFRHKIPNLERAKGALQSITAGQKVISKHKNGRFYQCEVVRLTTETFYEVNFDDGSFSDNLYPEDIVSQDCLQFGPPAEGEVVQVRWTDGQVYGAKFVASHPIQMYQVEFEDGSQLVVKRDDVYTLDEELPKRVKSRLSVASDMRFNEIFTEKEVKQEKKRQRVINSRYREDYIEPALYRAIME

[7] = molecular target: T1, Tyrosine-protein phosphatase non-receptor type 22; assay: PubChem AID 2135
[8] = molecular target: Envelope glycoprotein gp160 (Human immunodeficiency virus 1, UniProt Q6QLK5); assay: cell-free HIV fusion peptide-binding blockers – biochemical, uHTS, fluorescence dequenching, […] (AID 1986)
Envelope glycoprotein gp160, sequence (Q6QLK5 whole entry, the tested form may be a part): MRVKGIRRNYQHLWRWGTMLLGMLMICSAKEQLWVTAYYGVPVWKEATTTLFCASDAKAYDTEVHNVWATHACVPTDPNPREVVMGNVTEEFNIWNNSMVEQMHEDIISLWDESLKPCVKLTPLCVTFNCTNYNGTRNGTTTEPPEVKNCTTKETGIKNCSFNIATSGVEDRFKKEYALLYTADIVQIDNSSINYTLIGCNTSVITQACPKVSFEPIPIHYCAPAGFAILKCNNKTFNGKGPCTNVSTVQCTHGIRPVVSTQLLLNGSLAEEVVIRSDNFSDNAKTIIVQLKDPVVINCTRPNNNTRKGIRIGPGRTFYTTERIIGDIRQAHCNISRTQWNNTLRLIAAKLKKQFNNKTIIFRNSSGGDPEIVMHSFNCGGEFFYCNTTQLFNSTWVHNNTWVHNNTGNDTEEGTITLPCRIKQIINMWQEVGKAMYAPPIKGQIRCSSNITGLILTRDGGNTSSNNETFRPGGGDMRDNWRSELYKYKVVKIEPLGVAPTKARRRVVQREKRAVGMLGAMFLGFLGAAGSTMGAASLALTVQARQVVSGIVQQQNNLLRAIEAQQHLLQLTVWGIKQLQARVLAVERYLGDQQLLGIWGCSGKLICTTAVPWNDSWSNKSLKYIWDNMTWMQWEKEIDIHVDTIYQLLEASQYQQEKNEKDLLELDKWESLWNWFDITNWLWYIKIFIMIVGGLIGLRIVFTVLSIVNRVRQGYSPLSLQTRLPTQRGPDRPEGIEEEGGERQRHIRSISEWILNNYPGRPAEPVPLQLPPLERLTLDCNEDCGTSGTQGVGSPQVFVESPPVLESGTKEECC

[9] = molecular target: T1, Tyrosine-protein phosphatase non-receptor type 22; assay: PTPN22 lymphoid phosphatase activity blockers – biochemical, fluorescence intensity, uHTS (AID 1779)

In the case of `CCN1/C(=C/c2ccc3cc(C)ccc3[n+]2CC)Sc2cc(C)c(C)cc21`, the EC50 (BJ) is reported as 0.337 µM (inconclusive).

With `Cc1oc2c(c1C(=O)c1ccccc1)C(=O)C(=O)c1ccccc1-2` the EC50 [1] was 8.93 µM (active) and the EC50 [2] was 2.26 µM (active).

With `O=C1CCCC2=C1C1(O)C(=O)c3ccccc3C1(O)O2` (stereo not given) the IC50 [3] was > 67 µM (not active).

In the case of `CSc1ccc(C=NNc2ccc(S(=O)(=O)Nc3ccccc3C(=O)O)cc2[N+](=O)[O-])cc1`, the IC50 [4] is reported as 2.82 µM (active), the IC50 [5] is reported as 1.27 µM (active) and the AC50 [6] is reported as 12.4 µM (active).

In the case of `O=C(O)COc1ccc(/C=N/NC(=O)c2ccc(-c3csc(Nc4ccc(Cl)cc4)n3)cc2)cc1`, the IC50 [7] is reported as 0.113 µM (active), the IC50 [8] is reported as 15 µM (active) and the IC50 [9] is reported as > 99 µM (inactive).
